Test results: PubChem BioAssay AID1845195 (Molecular Pharmacology Branch, DTP, NCI, 2023)

System: 156681-154-R-J1 tumor spheroid viability
Test: Anticancer human tumor 156681-154-R-J1 patient-derived melanoma cell line growth inhibition
Conditions: spheroids with HUVEC and MSC; for IC50: curve of first compound; for viability, T/C: stronger effect = lower value
How it was run: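 Single agents and combinations were tested on spheroids built from tumor cells plus HUVEC and hMSC, at half-log dilutions starting at or near clinical Cmax, else 10 microM; final DMSO 0.25% (v/v).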

[1] = second compound 0.003 µM, first compound 0.0316 µM
[2] = second compound 0.003 µM, first compound 0.1 µM
[3] = second compound 0.003 µM, first compound 0.316 µM
[4] = second compound 0.003 µM, first compound 1 µM
[5] = second compound 0.003 µM, first compound 3.16 µM
[6] = second compound 0.003 µM, first compound 10 µM
[7] = second compound 0.00949 µM, first compound 0.0316 µM
[8] = second compound 0.00949 µM, first compound 0.1 µM
[9] = second compound 0.00949 µM, first compound 0.316 µM
[10] = second compound 0.00949 µM, first compound 1 µM
[11] = second compound 0.00949 µM, first compound 3.16 µM
[12] = second compound 0.00949 µM, first compound 10 µM
[13] = second compound 0.03 µM, first compound 0.0316 µM
[14] = second compound 0.03 µM, first compound 0.1 µM
[15] = second compound 0.03 µM, first compound 0.316 µM
[16] = second compound 0.03 µM, first compound 1 µM
[17] = second compound 0.03 µM, first compound 3.16 µM
[18] = second compound 0.03 µM, first compound 10 µM
[19] = second compound 0.0949 µM, first compound 0.0316 µM
[20] = second compound 0.0949 µM, first compound 0.1 µM
[21] = second compound 0.0949 µM, first compound 0.316 µM
[22] = second compound 0.0949 µM, first compound 1 µM
[23] = second compound 0.0949 µM, first compound 3.16 µM
[24] = second compound 0.0949 µM, first compound 10 µM
[25] = second compound 0.3 µM, first compound 0.0316 µM
[26] = second compound 0.3 µM, first compound 0.1 µM
[27] = second compound 0.3 µM, first compound 0.316 µM
[28] = second compound 0.3 µM, first compound 1 µM
[29] = second compound 0.3 µM, first compound 3.16 µM
[30] = second compound 0.3 µM, first compound 10 µM
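Also: spheroids exposed to compounds for 7 days before readout.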
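For viability, T/C in this document: percent of vehicle control viability where 100% = DMSO-treated spheroids.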

CC(C)n1c(=O)n(C)c2cnc3cc(F)c(-c4ccc(OCCCN5CCCCC5)nc4)cc3c21 + CC[C@@]1(O)C(=O)OCc2c1cc1n(c2=O)Cc2cc3c(CN(C)C)c(O)ccc3nc2-1
IC50 (second compound 0.003 µM): > 10000 nM
IC50 (second compound 0.00949 µM): > 10000 nM
IC50 (second compound 0.03 µM): 55.1 nM
IC50 (second compound 0.0949 µM): < 31.6 nM
IC50 (second compound 0.3 µM): < 31.6 nM
viability, T/C [1]: 83%
viability, T/C [2]: 92.7%
viability, T/C [3]: 77.3%
viability, T/C [4]: 78.8%
viability, T/C [5]: 97.9%
viability, T/C [6]: 85.5%
viability, T/C [7]: 77.2%
viability, T/C [8]: 75%
viability, T/C [9]: 74.4%
viability, T/C [10]: 76.3%
viability, T/C [11]: 80.8%
viability, T/C [12]: 78.8%
viability, T/C [13]: 57.8%
viability, T/C [14]: 44.7%
viability, T/C [15]: 30.3%
viability, T/C [16]: 29.6%
viability, T/C [17]: 44.8%
viability, T/C [18]: 31.7%
viability, T/C [19]: 11.9%
viability, T/C [20]: 10.2%
viability, T/C [21]: 10.8%
viability, T/C [22]: 13.2%
viability, T/C [23]: 11.8%
viability, T/C [24]: 13.6%
viability, T/C [25]: 10.2%
viability, T/C [26]: 9.03%
viability, T/C [27]: 9.13%
viability, T/C [28]: 9.94%
viability, T/C [29]: 9.43%
viability, T/C [30]: 15%

COc1ccc([C@@H](O)c2cc(-c3ncnc4cc(N5CCOCC5)ccc34)c(F)cc2Cl)nn1 + CC[C@@]1(O)C(=O)OCc2c1cc1n(c2=O)Cc2cc3c(CN(C)C)c(O)ccc3nc2-1
IC50 (second compound 0.003 µM): 5780 nM
IC50 (second compound 0.00949 µM): 3580 nM
IC50 (second compound 0.03 µM): 616 nM
IC50 (second compound 0.0949 µM): < 31.6 nM
IC50 (second compound 0.3 µM): < 31.6 nM
viability, T/C [1]: 80.6%
viability, T/C [2]: 70.4%
viability, T/C [3]: 78.3%
viability, T/C [4]: 63.9%
viability, T/C [5]: 54.4%
viability, T/C [6]: 46.6%
viability, T/C [7]: 89.9%
viability, T/C [8]: 75.9%
viability, T/C [9]: 75%
viability, T/C [10]: 62.4%
viability, T/C [11]: 47.6%
viability, T/C [12]: 43.3%
viability, T/C [13]: 71.5%
viability, T/C [14]: 57.8%
viability, T/C [15]: 53.9%
viability, T/C [16]: 49.5%
viability, T/C [17]: 41.8%
viability, T/C [18]: 35.3%
viability, T/C [19]: 24.1%
viability, T/C [20]: 30.7%
viability, T/C [21]: 30.3%
viability, T/C [22]: 34%
viability, T/C [23]: 36.3%
viability, T/C [24]: 28.4%
viability, T/C [25]: 32.9%
viability, T/C [26]: 36.8%
viability, T/C [27]: 35.6%
viability, T/C [28]: 42.1%
viability, T/C [29]: 25.9%
viability, T/C [30]: 8.42%
